Active and inactive are the calls of the source. The rule behind the calls is not given here. Bridge positions count the residues as written; N and C are the ends. Peptide text beside a SMILES is read from it.
Columns and labels:
[1] = biological target: T1, Mas-related G-protein coupled receptor member X2 (Homo sapiens) (UniProt Q96LB1); test: Agonist activity at MRGPRX2 (unknown origin) expressed in HEK293 cells assessed as induction of G(o) dissociation by measuring luminescent decay at 32 uM by NanoBiT-G-protein dissociation assay; type: functional, cell-based; settings: filed as agonist
T1 sequence (whole entry): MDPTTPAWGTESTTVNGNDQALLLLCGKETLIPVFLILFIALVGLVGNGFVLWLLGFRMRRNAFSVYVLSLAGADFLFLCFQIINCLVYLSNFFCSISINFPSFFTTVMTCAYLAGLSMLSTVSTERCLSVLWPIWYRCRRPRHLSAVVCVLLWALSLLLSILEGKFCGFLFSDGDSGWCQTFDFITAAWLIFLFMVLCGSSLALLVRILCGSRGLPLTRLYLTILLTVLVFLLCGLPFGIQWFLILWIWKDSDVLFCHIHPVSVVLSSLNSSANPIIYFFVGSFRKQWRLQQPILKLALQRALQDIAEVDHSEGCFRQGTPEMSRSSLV

[2] = biological target: T2, Mas-related G-protein coupled receptor member X2 (Homo sapiens, UniProt Q96LB1); test: Agonistic activity at MRGPRX2 (unknown origin)
T2 sequence (Q96LB1 whole entry): T1 sequence (whole entry)

[3] = biological target: T3, Mas-related G-protein coupled receptor member B2 (Mus musculus) (UniProt Q3KNA1); test: Agonist activity at mouse Mrgprb2 expressed in HEK293 cells assessed as induction of G(o) dissociation by measuring luminescent decay at 32 uM by NanoBiT-G-protein dissociation assay; type: cell-based; settings: filed as agonist
T3 sequence (whole entry): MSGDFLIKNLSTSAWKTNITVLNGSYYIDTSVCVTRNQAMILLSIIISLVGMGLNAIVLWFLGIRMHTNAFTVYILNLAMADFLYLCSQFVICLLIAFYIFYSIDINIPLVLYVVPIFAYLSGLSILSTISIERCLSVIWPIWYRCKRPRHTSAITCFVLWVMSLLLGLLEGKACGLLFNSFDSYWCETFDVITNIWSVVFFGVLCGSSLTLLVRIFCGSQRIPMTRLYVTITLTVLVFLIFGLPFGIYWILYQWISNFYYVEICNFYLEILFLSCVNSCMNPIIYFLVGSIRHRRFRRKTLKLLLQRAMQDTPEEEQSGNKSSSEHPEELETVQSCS

[4] = organism: Mus musculus; test: Increase in number of nociceptive behaviors in mouse at 3 to 30 ug, it; type: functional; settings: dose 3-30 µg, DDE = dose-dependent effect
[5] = organism: Mus musculus; test: Increase in number of nociceptive behaviors in mouse at 30 ug, it; type: functional; settings: dose 30.0 µg
[6] = organism: Mus musculus; test: Increase in number of scratching behaviors in mouse at 3 to 300 ug, id; type: functional; settings: dose 3-300 µg, DDE = dose-dependent effect
[7] = biological target: T3, Mas-related G-protein coupled receptor member B2 (Mus musculus); test: Agonist activity at mouse Mrgprb2 expressed in HEK293 cells assessed as induction of G(o) dissociation by measuring luminescent decay at 10 uM by NanoBiT-G-protein dissociation assay; type: cell-based; settings: filed as agonist
[8] = biological target: T1, Mas-related G-protein coupled receptor member X2 (Homo sapiens); test: Agonist activity at MRGPRX2 (unknown origin) expressed in HEK293 cells assessed as induction of G(o) dissociation by measuring luminescent decay at 10 uM by NanoBiT-G-protein dissociation assay; type: functional, cell-based; settings: filed as agonist

CN1CC[C@]2(c3cccc(O)c3)Cc3nc4ccccc4cc3C[C@@H]2C1
Activity [1]: Active
EC50 [2]: 290 nM
Activity [3]: Active

CN1CC[C@]23Cc4nc5ccccc5cc4C[C@@]2(O)[C@H]1Cc1ccc(O)cc13
Activity [1]: Active
Activity [4]: Dde
Activity [5]: Active
Activity [3]: Active
Activity [6]: Dde

C[C@@H](O)[C@@H]1NC(=O)[C@H](CCCCN)NC(=O)[C@H](Cc2c[nH]c3ccccc23)NC(=O)[C@H](Cc2ccccc2)NC(=O)[C@H](Cc2ccccc2)NC(=O)[C@H](CC(N)=O)NC(=O)[C@H](CCCCN)NC(=O)[C@@H](NC(=O)[C@@H]2CCCN2)CSSC[C@@H](C(=O)N[C@@H](CCCCN)C(=O)O)NC(=O)[C@H](CO)NC(=O)[C@H](CO)NC(=O)[C@H](Cc2ccccc2)NC1=O (H-PCKNFFWKTFSSCK-OH; disulfide 2-13)
Activity [7]: Active
Activity [8]: Active

Reference: ChEMBL document CHEMBL5131412, “Synthesis of unnatural morphinan compounds to induce itch-like behaviors in mice: Towards the development of MRGPRX2 selective ligands” (Bioorg Med Chem Lett, 2022)
